Tests used:
[1] = Absorption and emission spectra of AP site binding probes in ethanol; type: physicochemical
Experimental: NMR spectra were recorded on a Varian Mercury 300 MHz, a Varian Inova 400, and a Varian Inova 600 MHz spectrometer at room temperature, except where otherwise noted. Chemical shifts for 1H NMR were reported as 6, parts per million, and referenced to CHCl3 at 7.26 ppm or TMS at 0 ppm. Chemical shifts for ^13C NMR were reported as 6 and referenced to the center line of the CDCl3 triplet at 77.0 ppm or CH2Cl2 pentet at 54.0 ppm. Low resolution mass spectra were recorded on a ThermoScientific LCQ Advantage or a Finnigan LCQ Deca mass spectrometer. Fluorescence data were collected on a Varian Cary Eclipse fluorescence spectrophotometer in a quartz cuvette with a 1 cm pathlength or on a Tecan Infinite M200 scanner. Absorbance data were collected on a Varian Cary 50 Bio UV-Visible Spectrophotometer in a quartz cuvette with a 1 cm path length.
To characterize the fluorescent properties, the absorption and emission spectra were collected for all final compounds.

[2] = test system: AP DNA; experiment: SSB activity assay, dose-response of AP site binding probes; type: biochemical; details: 5 pmol AP DNA, FIG. 1
Experimental: FIG. 1 illustrates SSB activity assay is used to compare the dose-response of AP site binding probes in 5 pmol of AP DNA. Mean and standard deviation of triplicate samples are shown for each concentration.
The single strand break (SSB) assay was proposed as a quick, facile tool to screen AP site binding probes. Therefore, the assay was performed on novel AP site binding probes described above and the commercially available AP site binding probe, F422. […] The reduced response of F422 and DansylMX may be due in part to the compounds being fairly electron rich near the aminooxy binding moiety. This could lead to a Coulombic repulsion with the DNA phosphate backbone.
SSB activity assays were performed on a 40-mer duplex DNA synthesized by IDT with the sequence:
SSB Activity Assay Control Reactions

CCCN1/C(=C/C=C(/C=C/C2=[N+](CCC)c3ccccc3C2(C)C)c2ccc(C(=O)NCCCON)cn2)C(C)(C)c2ccccc21 [Cy5MX, 2-((1E,3Z)-3-(5-((3-(aminooxy)propyl)carbamoyl)pyridin-2-yl)-5-((E)-3,3-dimethyl-1-propylindolin-2-ylidene)penta-1,3-dien-1-yl)-3,3-dimethyl-1-propyl-3H-indol-1-ium 2,2,2-trifluoroacetate]
Stokes shift [1]: 20 nm
λabs max [1]: 640 nm
λem max [1]: 660 nm
dose-response and overall efficacy in SSB assay [2]: acceptable dose-response and overall efficacy

CN(C)c1cccc2c(S(=O)(=O)NOCCCON)cccc12 [DansylMX, N-(3-(aminooxy)propoxy)-5-(dimethylamino)naphthalene-1-sulfonamide]
Stokes shift [1]: 200 nm
λabs max [1]: 340 nm
λem max [1]: 540 nm
dose-response and overall efficacy in SSB assay [2]: unacceptable dose-response
overall reduction in SSB activity [2]: ca. 60%

Cc1cc(=O)oc2cc(OCCCON)ccc12 [MCMX, 7-(3-(aminooxy)propoxy)-4-methyl-2H-chromen-2-one]
Stokes shift [1]: 50 nm
λabs max [1]: 325 nm
λem max [1]: 375 nm
dose-response and overall efficacy in SSB assay [2]: superior to the other probes assayed in dose-response and overall efficacy

NOCCCOc1ccc2cc(-c3ccc([N+](=O)[O-])cc3)c(=O)oc2c1 [NpCMX, 7-(3-(aminooxy)propoxy)-3-(4-nitrophenyl)-2H-chromen-2-one]
Stokes shift [1]: 185 nm
λabs max [1]: 365 nm
λem max [1]: 550 nm
dose-response and overall efficacy in SSB assay [2]: superior to the other probes assayed in dose-response and overall efficacy

NNC(=S)Nc1ccc(-c2c3ccc(=O)cc-3oc3cc(O)ccc23)c(C(=O)O)c1 [Probe F422, reference compound]
dose-response and overall efficacy in SSB assay [2]: unacceptable dose-response
overall reduction in SSB activity [2]: ~90%

Reference: patent US10718028B2, “Fluorescent probes for abasic site detection” (CASE WESTERN RESERVE UIVERSITY, priority 2015, dated 2020)
